Reference: patent publication US20240174714A1, “TREATMENT OF SKIN DISORDERS” (priority 2021, published 2024)
Values after ≈ are worked out from the molar mass of the structure shown. Numbered stars: 1 amine (or outer) side, 2 acyl side, 3 side chain; on linkers, the order of the positions; unused ones are H or OH. Square brackets hold non-standard residues; d marks the D form. Peptide text beside a SMILES is read from it. * marks the point of attachment. X13 = O=C([C@H](Cc1nc2ccc(F)cc2s1)N[*:1])[*:2]; X14 = COc1ccc(C[C@H](N[*:1])C(=O)[*:2])cc1Cl; Ala(thiazol-2-yl) = N[C@@H](Cc1nccs1)C(=O)O; NH(1-CH2NMe2-cBu) = CN(C)CC1(N*)CCC1; dGly(nOct) = CCCCCCCC[C@@H](N)C(=O)O; Gly(octyl) = CCCCCCCC[C@H](N)C(=O)O; Oxazole4CO(2-Me) = Cc1nc(C(=O)*)co1; Benzoyl(4-F) = O=C(c1ccc(F)cc1)*; hCha = N[C@@H](CCC1CCCCC1)C(=O)O; NHCH2CH2NHMe = CNCCN*; Aib = CC(C)(N)C(=O)O; X1 = COCCN(CCN*)CCOC; βAla = NCCC(=O)O

What was measured:
[1] = system: Staphylococcus aureus ATCC 43300, MRSA; type: cell-based; conditions: ATCC 43300, 18 h
Protocol: The antibacterial activity of inventive compounds was evaluated in duplicate in a further Minimum Inhibitory Concentration (MIC) assay.
Bacteria were cultured in Cation-adjusted Mueller Hinton broth (CAMHB) at 37° C. overnight. A sample of each culture was then diluted 40-fold in fresh broth and incubated at 37° C. for 1.5-3 h. The resultant mid-log phase cultures were diluted (CFU/mL measured by OD600), then added to each well of the compound containing plates, giving a cell density of 5×10^5 CFU/mL and a total volume of 50 μL. All the plates were covered and incubated at 37° C. for 18 h without shaking.
Samples were prepared in DMSO and serially diluted 2 fold 8 times. Each sample concentration was prepared in 384-well plates, non-binding surface plate (NBS; Corning 3640) for the bacterial strain ATCC 43300, MRSA. The final DMSO concentration was at a maximum of 0.5%.
Inhibition of bacterial growth was determined measuring absorbance at 600 nm (OD600), using a Tecan M1000 Pro monochromator plate reader. The percentage of growth inhibition was calculated for each well, using the negative control (media only) and positive control (bacteria without inhibitors) on the same plate as references. […] Vancomycin was used as positive bacterial inhibitor standards.

[2] = Cytotoxicity assay (Alamar Blue) on L6-cells; type: cell-based, rat; conditions: rat
Protocol: Tests were done in triplicate.
The plates were incubated for additional 2 h.

[3] = system: axenic Leishmania donovani MHOM-ET-67/L82 amastigotes; test: In vitro antiprotozoal assay, axenic amastigotes; type: cell-based; conditions: axenic amastigotes; read-out: L.don.ax. IC50
Protocol: (§1) The testing of the inventive compounds against Leishmania donovani (strain MHOM/ET/67/L82) was performed in 96 well plates at concentrations in serial dilutions. Tests were done in triplicate.

[4] = system: Staphylococcus aureus ATCC BAA-1556, USA300 MRSA; test: microbe, parasite or virus in culture; type: cell-based; conditions: ATCC BAA-1556
Protocol: Pre-formulated compound solution was diluted in 100% DMSO to prepare a 1.6 mg/mL working stock solution. […] The concentration range was 0.032 to 32 μg/mL.

[5] = system: intracellular Leishmania donovani MHOM-ET-67/L82 amastigotes; test: In vitro antiprotozoal assay, intracellular amastigotes; type: cell-based; conditions: intracellular amastigotes; read-out: L.don.InMac IC50
Protocol: as §1

## COc1ccc(C[C@H](NC(=O)[C@@H]2CCCN2C(=O)c2ccc(F)cc2)C(=O)N[C@@H](CC(C)C)C(=O)NC(C)(C)C(=O)N[C@@H](CC(C)C)C(=O)N[C@@H](CC(C)C)C(=O)NC(C)(C)C(=O)NC(C)(C)C(=O)NCCC(=O)NC2(CN(C)C)CCC2)cc1Cl [Compound 7846, (2S)-2-[(2S)-3-(3-chloro-4-methoxyphenyl)-2-{[(2S)-1-(4-fluorobenzoyl)pyrrolidin-2-yl]formamido}propanamido]-N-(1-{[(1S)-1-{[(1S)-1-({1-[(1-{[2-({1-[(dimethylamino)methyl]cyclobutyl}carbamoyl)ethyl]carbamoyl}-1-methylethyl)carbamoyl]-1-methylethyl}carbamoyl)-3-methylbutyl]carbamoyl}-3-methylbutyl]carbamoyl}-1-methylethyl)-4-methylpentanamide] ({Benzoyl(4-F)}-P[X14]L[Aib]LL[Aib][Aib][βAla]-{NH(1-CH2NMe2-cBu)})
[1]
  MIC: 4 µg/mL (≈ 3.27 µM)

## Cc1nc(C(=O)N2CCC[C@H]2C(=O)N[C@@H](CC2CCCCC2)C(=O)N[C@@H](CC(C)C)C(=O)NC(C)(C)C(=O)N[C@@H](CC(C)C)C(=O)N[C@@H](CC(C)C)C(=O)NC(C)(C)C(=O)NC(C)(C)C(=O)NCCC(=O)NC2(CN(C)C)CCC2)co1 [Compound 7059, (2S)-2-[(2S)-3-cyclohexyl-2-{[(2S)-1-(2-methyl-1,3-oxazole-4-carbonyl)pyrrolidin-2-yl]formamido}propanamido]-N-(1-{[(1S)-1-{[(1S)-1-({1-[(1-{[2-({1-[(dimethylamino)methyl]cyclobutyl}carbamoyl)ethyl]carbamoyl}-1-methylethyl)carbamoyl]-1-methylethyl}carbamoyl)-3-methylbutyl]carbamoyl}-3-methylbutyl]carbamoyl}-1-methylethyl)-4-methylpentanamide] (HELM PEPTIDE1{[Cc1nc(C(=O)[*:2])co1].P.[Cha].L.[Aib].L.L.[Aib].[Aib].[bAla].[CN(C)CC1(N[*:1])CCC1]}$$$$V2.0)
[2]
  IC50 at 68 h: 6850 nM
[1]
  MIC: 32 µg/mL (≈ 27.7 µM)
[3]
  IC50: 1.3 nM
[4]
  MIC: 4 µg/mL (≈ 3.47 µM)

## Cc1nc(C(=O)N2CCC[C@H]2C(=O)N[C@@H](Cc2c[nH]c3ccccc23)C(=O)N[C@@H](CC(C)C)C(=O)NC(C)(C)C(=O)N[C@@H](CC(C)C)C(=O)N[C@@H](CC(C)C)C(=O)NC(C)(C)C(=O)NC(C)(C)C(=O)NCCC(=O)NC2(CN(C)C)CCC2)co1 [Compound 6779, (2S)-N-(1-{[(1S)-1-{[(1S)-1-({1-[(1-{[2-({1-[(dimethylamino)methyl]cyclobutyl}carbamoyl)ethyl]carbamoyl}-1-methylethyl)carbamoyl]-1-methylethyl}carbamoyl)-3-methylbutyl]carbamoyl}-3-methylbutyl]carbamoyl}-1-methylethyl)-2-[(2S)-3-(1H-indol-3-yl)-2-{[(2S)-1-(2-methyl-1,3-oxazole-4-carbonyl)pyrrolidin-2-yl]formamido}propanamido]-4-methylpentanamide] (HELM PEPTIDE1{[Cc1nc(C(=O)[*:2])co1].P.W.L.[Aib].L.L.[Aib].[Aib].[bAla].[CN(C)CC1(N[*:1])CCC1]}$$$$V2.0)
[2]
  IC50 at 68 h: 6680 nM
[1]
  MIC: 8 µg/mL (≈ 6.74 µM)
[3]
  IC50: 27 nM
[5]
  IC50: 203 nM

## CC(C)C[C@H](NC(=O)[C@H](Cc1nc2ccc(F)cc2s1)NC(=O)[C@@H]1CCCN1C(=O)c1ccc(F)cc1)C(=O)NC(C)(C)C(=O)N[C@@H](CC(C)C)C(=O)N[C@@H](CC(C)C)C(=O)NC(C)(C)C(=O)NC(C)(C)C(=O)NCCC(=O)NC1(CN(C)C)CCC1 [Compound 7848, (2S)-N-(1-{[(1S)-1-{[(1S)-1-({1-[(1-{[2-({1-[(dimethylamino)methyl]cyclobutyl}carbamoyl)ethyl]carbamoyl}-1-methylethyl)carbamoyl]-1-methylethyl}carbamoyl)-3-methylbutyl]carbamoyl}-3-methylbutyl]carbamoyl}-1-methylethyl)-2-[(2S)-3-(6-fluoro-1,3-benzothiazol-2-yl)-2-{[(2S)-1-(4-fluorobenzoyl)pyrrolidin-2-yl]formamido}propanamido]-4-methylpentanamide] ({Benzoyl(4-F)}-P[X13]L[Aib]LL[Aib][Aib][βAla]-{NH(1-CH2NMe2-cBu)})
[1]
  MIC: 4 µg/mL (≈ 3.24 µM)

## COCCN(CCNC(=O)CCNC(=O)C(C)(C)NC(=O)C(C)(C)NC(=O)[C@H](CC(C)C)NC(=O)[C@H](CC(C)C)NC(=O)C(C)(C)NC(=O)[C@H](CC(C)C)NC(=O)[C@H](CCC1CCCCC1)NC(=O)[C@@H]1CCCN1C(=O)c1coc(C)n1)CCOC [Compound 6791, (2S)-N-(1-{[(1S)-1-{[(1S)-1-({1-[(1-{[2-({2-[bis(2-methoxyethyl)amino]ethyl}carbamoyl)ethyl]carbamoyl}-1-methylethyl)carbamoyl]-1-methylethyl}carbamoyl)-3-methylbutyl]carbamoyl}-3-methylbutyl]carbamoyl}-1-methylethyl)-2-[(2S)-4-cyclohexyl-2-{[(2S)-1-(2-methyl-1,3-oxazole-4-carbonyl)pyrrolidin-2-yl]formamido}butanamido]-4-methylpentanamide] ({Oxazole4CO(2-Me)}-P[hCha]L[Aib]LL[Aib][Aib][βAla]-X1)
[2]
  IC50 at 68 h: 8230 nM
[3]
  IC50: 2.1 nM
[4]
  MIC: 32 µg/mL (≈ 26.3 µM)
[5]
  IC50: 179 nM

## CC(C)C[C@H](NC(=O)[C@H](Cc1nccs1)NC(=O)[C@@H]1CCCN1C(=O)c1ccc(F)cc1)C(=O)NC(C)(C)C(=O)N[C@@H](CC(C)C)C(=O)N[C@@H](CC(C)C)C(=O)NC(C)(C)C(=O)NC(C)(C)C(=O)NCCC(=O)NC1(CN(C)C)CCC1 [Compound 7842, (2S)-N-(1-{[(1S)-1-{[(1S)-1-({1-[(1-{[2-({1-[(dimethylamino)methyl]cyclobutyl}carbamoyl)ethyl]carbamoyl}-1-methylethyl)carbamoyl]-1-methylethyl}carbamoyl)-3-methylbutyl]carbamoyl}-3-methylbutyl]carbamoyl}-1-methylethyl)-2-[(2S)-2-{[(2S)-1-(4-fluorobenzoyl)pyrrolidin-2-yl]formamido}-3-(1,3-thiazol-2-yl)propanamido]-4-methylpentanamide] ({Benzoyl(4-F)}-P[Ala(thiazol-2-yl)]L[Aib]LL[Aib][Aib][βAla]-{NH(1-CH2NMe2-cBu)})
[1]
  MIC: 32 µg/mL (≈ 27.4 µM)

## Cc1nc(C(=O)N2CCCC2C(=O)N[C@@H](CCC2CCCCC2)C(=O)N[C@@H](CC(C)C)C(=O)NC(C)(C)C(=O)N[C@@H](CC(C)C)C(=O)N[C@@H](CC(C)C)C(=O)NC(C)(C)C(=O)NC(C)(C)C(=O)NCCC(=O)NCCN)co1 (stereo in doubt) [Compound 7192, (2S)-N-(1-{[(1S)-1-{[(1S)-1-[(1-{[1-({2-[(2-aminoethyl)carbamoyl]ethyl}carbamoyl)-1-methylethyl]carbamoyl}-1-methylethyl)carbamoyl]-3-methylbutyl]carbamoyl}-3-methylbutyl]carbamoyl}-1-methylethyl)-2-[(2S)-4-cyclohexyl-2-{[(2S)-1-(2-methyl-1,3-oxazole-4-carbonyl)pyrrolidin-2-yl]formamido}butanamido]-4-methylpentanamide]
[1]
  MIC: 8 µg/mL (≈ 7.28 µM)
[4]
  MIC: 16 µg/mL (≈ 14.6 µM)

## CCCCCCCC[C@H](NC(=O)[C@@H]1CCCN1C(=O)c1coc(C)n1)C(=O)N[C@@H](CC(C)C)C(=O)NC(C)(C)C(=O)N[C@@H](CC(C)C)C(=O)N[C@@H](CC(C)C)C(=O)NC(C)(C)C(=O)NC(C)(C)C(=O)NCCC(=O)NCCNC [Compound 7058, (2S)-2-{[(2S)-1-(2-methyl-1,3-oxazole-4-carbonyl)pyrrolidin-2-yl]formamido}-N-[(1S)-3-methyl-1-[(1-methyl-1-{[(1S)-3-methyl-1-{[(1S)-3-methyl-1-{[1-methyl-1-({1-methyl-1-[(2-{[2-(methylamino)ethyl]carbamoyl}ethyl)carbamoyl]ethyl}carbamoyl)ethyl]carbamoyl}butyl]carbamoyl}butyl]carbamoyl}ethyl)carbamoyl]butyl]decanamide] ({Oxazole4CO(2-Me)}-P[Gly(octyl)]L[Aib]LL[Aib][Aib][βAla]-NHCH2CH2NHMe)
[2]
  IC50 at 68 h: 5040 nM
[3]
  IC50: 23.8 nM
[4]
  MIC: 4 µg/mL (≈ 3.59 µM)
[5]
  IC50: 2620 nM

## CCCCCCCC[C@@H](NC(=O)[C@@H]1CCCN1C(=O)c1coc(C)n1)C(=O)N[C@@H](CC(C)C)C(=O)NC(C)(C)C(=O)N[C@@H](CC(C)C)C(=O)N[C@@H](CC(C)C)C(=O)NC(C)(C)C(=O)NC(C)(C)C(=O)NCCC(=O)NC1(CN(C)C)CCC1 [Compound 6789, (2R)-N-[(1S)-1-[(1-{[(1S)-1-{[(1S)-1-({1-[(1-{[2-({1-[(dimethylamino)methyl]cyclobutyl}carbamoyl)ethyl]carbamoyl}-1-methylethyl)carbamoyl]-1-methylethyl}carbamoyl)-3-methylbutyl]carbamoyl}-3-methylbutyl]carbamoyl}-1-methylethyl)carbamoyl]-3-methylbutyl]-2-{[(2S)-1-(2-methyl-1,3-oxazole-4-carbonyl)pyrrolidin-2-yl]formamido}decanamide] ({Oxazole4CO(2-Me)}-P[dGly(nOct)]L[Aib]LL[Aib][Aib][βAla]-{NH(1-CH2NMe2-cBu)})
[2]
  IC50 at 68 h: 4280 nM
[3]
  IC50: 3.4 nM
[4]
  MIC: 16 µg/mL (≈ 13.7 µM)
[5]
  IC50: 65 nM
